For seven compounds, IC50 results are on record in patent publication US20230117034A1, “PYRAZOLOTRIAZINES” (Bayer Aktiengesellschaft, priority 2019, published 2023).

One test addresses CDK12/CycK (Homo sapiens, UniProt Q9NYV4). Kind of test: CDK12/CycK high ATP kinase assay (TR-FRET, 2 mM ATP). The class given is biochemical. As to conditions: 2 mM ATP (high ATP); median; read-out: CDK12/CyclinK, 2 mM ATP (high ATP), IC50-[mol/l] (median). The essentials: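 His-tagged human CDK12/CycK (~0.75 nM) pre-incubated 15 min with compound, then 60 min at 22 °C with 2 mM ATP and 1 µM biotinylated peptide (HEPES pH 7.5, 20 mM MgCl2). EDTA stop; phospho-Ser62 antibody/Eu anti-rabbit and streptavidin-XL665 TR-FRET, 665/620 nm ratio normalised to give IC50.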
On the technique in general: In TR-FRET formats the signal depends on donor and acceptor labels being close together.

In test [1] the test system is MDA-MB-231, human breast cancer cells. Kind of test: Proliferation assay MDA-MB-231 (crystal violet, 4 days). The class given is cell-based. As to conditions: Homo sapiens, MDA-MB-231, 96 h, MDA-MB-231 cells, median, read-out: Prolif-MDA MB-231, IC50-[mol/l] (median). The essentials: (§1)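 Plated 4,000 cells/well, 10% FCS; 24 h later treated 0.01-10 µmol/L cpd (DMSO 0.1%), 4 d. Fix glutaraldehyde, stain 0.1% crystal violet pH 3.0, elute acetic acid, A595. Normalized to t0 plate/untreated; 4-param IC50.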

For test [2], the system named is CAL-120, human breast adenocarcinoma cells. Kind of test: Proliferation assay CAL-120 (crystal violet, 4 days). The class given is cell-based. As to conditions: Homo sapiens, CAL-120, 96 h, CAL-120 cells, median, read-out: Prolif-CAL-120, IC50-[mol/l] (median). The essentials: as §1

Each structure is given as a SMILES string.

Chain of CDK12/CycK (Q9NYV4 with tags, fused parts or gaps): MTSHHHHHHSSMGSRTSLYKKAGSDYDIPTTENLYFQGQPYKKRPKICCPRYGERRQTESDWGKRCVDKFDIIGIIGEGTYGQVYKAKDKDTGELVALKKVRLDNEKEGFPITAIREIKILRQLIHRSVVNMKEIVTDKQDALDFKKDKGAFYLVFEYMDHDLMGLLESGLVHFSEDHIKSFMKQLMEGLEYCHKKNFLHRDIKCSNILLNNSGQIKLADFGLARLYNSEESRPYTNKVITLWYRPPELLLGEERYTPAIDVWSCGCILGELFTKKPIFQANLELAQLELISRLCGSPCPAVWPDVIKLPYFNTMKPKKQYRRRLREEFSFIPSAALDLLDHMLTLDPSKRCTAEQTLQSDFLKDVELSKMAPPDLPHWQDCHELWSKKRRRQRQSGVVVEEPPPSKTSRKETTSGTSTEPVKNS
Chain of CDK12/CycK (O75909 1-300 partner limits assumed): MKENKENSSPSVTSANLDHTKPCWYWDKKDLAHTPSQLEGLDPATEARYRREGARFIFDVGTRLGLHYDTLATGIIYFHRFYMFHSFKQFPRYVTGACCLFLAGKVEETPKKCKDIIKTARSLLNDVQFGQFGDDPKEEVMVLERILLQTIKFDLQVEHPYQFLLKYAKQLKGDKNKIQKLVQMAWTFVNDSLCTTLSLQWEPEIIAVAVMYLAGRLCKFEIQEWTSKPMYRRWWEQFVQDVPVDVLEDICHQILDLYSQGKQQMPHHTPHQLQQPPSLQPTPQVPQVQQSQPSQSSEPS

With `Cc1cnn2c(NCc3nc4ccccc4[nH]3)nc(N3CC4CCC(C3)N4)nc12` [Example 401, N-[(1H-benzimidazol-2-yl)methyl]-2-(3,8-diazabicyclo[3.2.1]octan-3-yl)-8-methylpyrazolo[1,5-a][1,3,5]triazin-4-amine], the results for the IC50 (on CDK12/CycK; in test [1]; in test [2]) were above 20000 nM, 132 nM and 43.5 nM, respectively.

Consider `Fc1ccc2[nH]c(CNc3nc(N4CCOCC4)nc4c(CC(F)F)cnn34)nc2c1F.O=C(O)C(F)(F)F` [Example 425, trifluoroacetic acid N-[(4,5-difluoro-1H-benzimidazol-2-yl)methyl]-8-(2,2-difluoroethyl)-2-(morpholin-4-yl)pyrazolo[1,5-a][1,3,5]triazin-4-amine], for which the IC50 is 2140 nM on CDK12/CycK, 8.76 nM in test [1] and 3.06 nM in test [2].

For `CN1CCN(c2nc(NCc3nc4cc(Cl)c(Cl)cc4[nH]3)n3ncc(-c4cnn(C)c4)c3n2)CC1` [Example 420, N-[(5,6-dichloro-1H-benzimidazol-2-yl)methyl]-2-(4-methylpiperazin-1-yl)-8-(1-methyl-1H-pyrazol-4-yl)pyrazolo[1,5-a][1,3,5]triazin-4-amine], the figures for the IC50 (at CDK12/CycK; in test [1]; in test [2]) were above 20000 nM, 525 nM and 209 nM, respectively.

Take `O=C(O)C(F)(F)F.c1ccc2[nH]c(CNc3nc(N4CCOCC4)nc4c(-c5ccnnc5)cnn34)nc2c1` [Example 438, trifluoroacetic acid N-[(1H-benzimidazol-2-yl)methyl]-2-(morpholin-4-yl)-8-(pyridazin-4-yl)pyrazolo[1,5-a][1,3,5]triazin-4-amine]: the IC50 at CDK12/CycK is above 7860 nM; in test [1], 283 nM; in test [2], 44.6 nM.

With `N#Cc1cccc(-c2c[nH]c(CNc3nc(N4CCOCC4)nc4c(Br)cnn34)n2)c1` [Example 42, 3-[2-({[8-bromo-2-(morpholin-4-yl)pyrazolo[1,5-a][1,3,5]triazin-4-yl]amino}methyl)-1H-imidazol-4-yl]benzonitrile], the IC50 was determined as 406 nM on CDK12/CycK, 5.74 nM in test [1] and 1.76 nM in test [2].

Regarding `Clc1cc2nc(CNc3nc(N4CCOCC4)nc4c(-c5ccnnc5)cnn34)[nH]c2cc1Cl.O=C(O)C(F)(F)F` [Example 440, trifluoroacetic acid N-[(5,6-dichloro-1H-benzimidazol-2-yl)methyl]-2-(morpholin-4-yl)-8-(pyridazin-4-yl)pyrazolo[1,5-a][1,3,5]triazin-4-amine], the values for the IC50 (on CDK12/CycK; in test [1]; in test [2]) were above 20000 nM, 21.4 nM and 7.39 nM, respectively.

For the compound `Brc1cnn2c(NCc3nc4ccccc4[nH]3)nc(OC3CCCCC3)nc12` [Example 406, N-[(1H-benzimidazol-2-yl)methyl]-8-bromo-2-(cyclohexyloxy)pyrazolo[1,5-a][1,3,5]triazin-4-amine], the IC50 at CDK12/CycK is above 20000 nM; in test [1], 283 nM; in test [2], 62.2 nM.
